According to US12269793B2, “Affinity illudofulvene conjugates” (AF Chemicals, LLC, priority 2019, dated 2025):
Like-named read-outs stand apart in the source and are kept apart here. *1 amine or outer side, *2 acyl side, *3 side chain or, on linkers, in order; H or OH if unused. Where a SMILES comes first, the peptide text is derived from it. The star is where a group is joined. X2 = CC1=C(CCCN*)C2=C(C)C3(CC3)[C@@](C)(O)C(=O)C2=C1; Morpholide = C1CN(*)CCO1; CO = O=C([*:1])[*:2]

Tests used:
[1] = system: MV522 Target Cell Line (lung-derived adenocarcinoma); assay: cells; details: MV522, 2 h, read-out: Mean IC50 value
[2] = system: MV522 Target Cell Line (lung-derived adenocarcinoma); assay: cells; details: MV522, 48 h, read-out: Mean IC50 value
[3] = system: 8392B Nontarget Cell Line (hematopoietic); assay: cells; details: 2 h
[4] = system: 8392B Nontarget Cell Line (hematopoietic); assay: cells; details: 48 h, read-out: Mean IC50 value
[5] = system: NCI 60 cell line panel; assay: NCI DTP 60 cell line screen assay; details: for Mean LD50 cytotoxic: NCI DTP 60 cell line; for Activity Value: NCI 60 cell line screen, negative = lyse tumor cells, zero = no growth, positive = slower growth
Excerpt: An ADC is engulfed by a tumor cell, transported to the endosomes (pH<6.0) and then into the lysozomes (pH<4). […] 4). Cancer cells can become resistant to various toxins and drugs through the development of what is termed multi-drug resistance. This process is known to occur through several different mechanisms.

[6] = system: 8392B Nontarget Cell Line (hematopoietic); details: read-out: Mean IC50 value, 2 hr exposure, ± SD, N = 3 unless otherwise indicated
[7] = in vitro; details: human
Excerpt: (§1) MCF7 over express estrogen alpha-receptors.
(§2) MCF7 cells over express estrogen alpha-receptors.

[8] = system: MCF7 (ER positive); format: cell-based; details: MCF7 (ER positive) versus HT29 (ER negative), result in words
Excerpt: as §1, §2

[9] = system: 8392B Nontarget Cell Line (hematopoietic); details: read-out: Mean IC50 value, 48 hr exposure, ± SD, N = 3 unless otherwise indicated
[10] = system: MV522 Target Cell Line (lung-derived adenocarcinoma); details: read-out: Mean IC50 value; MV522 Target Cell Line, 2 hr exposure, ± SD, N = 3 unless otherwise indicated
[11] = read-out: Mean IC50 value, 8392B Nontarget Cell Line, 2 hr exposure, ± SD, N = 3 unless otherwise indicated

**Q.** What does the source list for `C=CCCC1=C(C)C=C2C(=O)[C@](C)(O)C3(CC3)C(C)=C21` [Analog 113]?
**A.** IC50 [1]: 85 ± 0.7 µM; IC50 [2]: 14.1 ± 3 µM; IC50 [3, 11]: > 93 µM; IC50 [4]: 7.8 ± 1 µM

**Q.** Which “Mean LD50 cytotoxic” value [5] does the source give for `C=C1C[C@H]2C=Nc3cc(OCCCOc4cc5c(cc4OC)C(=O)N4CC(=C)C[C@H]4C=N5)c(OC)cc3C(=O)N2C1` [Pyrrolo-benzodiazepines] here?
**A.** The value was >23,000 nM.

**Q.** Which IC50 [1] does the source give for `CC1=CC2=C(C)C3(CC3)[C@@](C)(O)C(O)C2=C1` (stereo partly drawn) [Analog 129] here?
**A.** Its IC50 is over 136 µM.

**Q.** What about the IC50 [2] of the same molecule?
**A.** Its IC50 is 19.7 ± 1.9 µM.

**Q.** And the IC50 [3, 11]?
**A.** Its IC50 is over 136 µM.

**Q.** What about the IC50 [4] of the same molecule?
**A.** The IC50 was 39.4 ± 9.2 µM.

**Q.** With `CC1=C(CSc2nnnn2-c2ccc(O)cc2)C2=C(C)C3(CC3)[C@@](C)(O)C(=O)C2=C1` [Analog 154] as the molecule, how does the IC50 [6] read?
**A.** Its IC50 is over 70 µM.

**Q.** With `CC1=C(CCC(=O)Oc2ccc3c(c2)CCC2C3CC[C@]3(C)C(=O)CCC23)C2=C(C)C3(CC3)[C@@](C)(O)C(=O)C2=C1` (stereo partly drawn) [Analog 110] as the molecule, how does the IC50 [1] read?
**A.** Its IC50 is over 55 µM.

**Q.** And the IC50 [7]?
**A.** Its IC50 is over 19 µM.

**Q.** And the IC50 ([3]; read-out: Mean IC50 value)?
**A.** Its IC50 is over 55 µM.

**Q.** And the “preferential killing of ER positive cells” value [8]?
**A.** The value was “preferentially killed”.

**Q.** And the IC50 [4]?
**A.** Its IC50 is 25.3 ± 2.1 µM.

**Q.** With `CC(=O)ON(C(C)=O)c1ccc(C(=O)OC[C@]2(C)C=C3C(=O)[C@](C)(O)C4(CC4)C(C)=C3C2OC(=O)c2ccc(N(OC(C)=O)C(C)=O)cc2)cc1` (stereo partly drawn) [Analog 140] as the molecule, how does the IC50 [9] read?
**A.** The IC50 was over 14 µM.

**Q.** For `CC1=C2C(=CC(C)(C)[C@@H]2O)C(=O)[C@](C)(O)C12CC2` [Illudin M, reference compound], which “preferential killing of ER positive cells” value [8] is on record?
**A.** The value was “killed both ER negative and ER positive cells to the same extent”.

**Q.** What does the source list for `CC1=C(CCC(C)O)C2=C(C)C3(CC3)[C@@](C)(O)C(=O)C2=C1` (stereo partly drawn) [Analog 128]?
**A.** IC50 [1]: 0.84 ± 0.23 µM; IC50 [2]: 0.37 ± 0.05 µM; IC50 [3, 11]: > 35 µM; IC50 [4]: 0.8 ± 0.07 µM

**Q.** Which IC50 [1] does the source give for `CC1=CC2=C(C)C3(CC3)[C@@](C)(O)C(=O)C2=C1` [Analog 001] here?
**A.** Its IC50 is 2.2 ± 0.1 µM.

**Q.** What about the IC50 [2] of the same molecule?
**A.** Its IC50 is 0.35 ± 0.02 µM.

**Q.** And the IC50 [4]?
**A.** The IC50 was 0.83 ± 0.1 µM.

**Q.** With `C/C(=C\c1csc(C)n1)[C@@H]1C[C@@H]2O[C@@H]2CCC[C@H](C)[C@H](O)[C@@H](C)C(=O)C(C)(C)[C@@H](O)CC(=O)O1` [Epothilone A] as the molecule, how does the “Activity Value” [5] read?
**A.** The value was “+31”.

**Q.** Which results are given for `CC1=C2C(=CC(C)(CO[Si](C)(C)C(C)(C)C)C2OC(=O)c2ccc(S(=O)(=O)F)cc2)C(=O)C(C)(O)C12CC2` (stereo not drawn) [Analog 219]?
**A.** IC50 [9]: > 52 µM; IC50 [6]: > 52 µM

**Q.** Which “Mean LD50 cytotoxic” value [5] does the source give for `CO[C@@H]1[C@H](O)CC[C@]2(CO2)[C@H]1[C@@]1(C)O[C@@H]1CC=C(C)C` [Fumagillol] here?
**A.** The value was >50,000 nM.

**Q.** Which IC50 [9] does the source give for `CC1=C2C(O)C(C)(C)C3CC23C(=O)C(C)(O)C12CC2` (stereo not drawn) [Analog 252] here?
**A.** Its IC50 is over 380 µM.

**Q.** And the IC50 [6]?
**A.** The IC50 was over 380 µM.

**Q.** What does the source list for `CC1=C(CNO)C2=C(C)C3(CC3)[C@@](C)(O)C(=O)C2=C1` [Analog 394]?
**A.** Activity Value [5]: −2; MDR Activity [5]: Yes

**Q.** What does the source list for `CC1=C(CSc2nccn2C)C2=C(C)C3(CC3)[C@@](C)(O)C(=O)C2=C1` [Analog 096]?
**A.** IC50 [2]: 6.2 ± 0.6 µM; IC50 [3, 11]: > 88 µM; IC50 [4]: > 3 µM

**Q.** Which IC50 [6] does the source give for `CC1=C(CSc2nc3ccccc3s2)C2=C(C)C3(CC3)[C@@](C)(O)C(=O)C2=C1` [Analog 147] here?
**A.** The IC50 was over 76 µM.

**Q.** Which IC50 [9] does the source give for `CC1=C(CCCNC(=O)[C@H](CC(C)C)NC(=O)[C@H](CCC(N)=O)NC(=O)[C@H](CC(C)C)NC(=O)[C@H](CCCCN)NC(=O)[C@H](CO)NC(=O)[C@H](CO)NC(=O)[C@H](Cc2c[nH]cn2)NC(=O)N2CCOCC2)C2=C(C)C3(CC3)[C@@](C)(O)C(=O)C2=C1` [Analog 221] ({Morpholide-CO}-HSSKLQL-X2) here?
**A.** Its IC50 is over 21 µM.

**Q.** What about the IC50 [10] of the same molecule?
**A.** The IC50 was over 21 µM.

**Q.** What about the IC50 [6] of the same molecule?
**A.** Its IC50 is over 21 µM.

**Q.** With `COC(=O)C1=C(C(=O)OC)C23C=C(C)C1C2=C(C)C1(CC1)[C@@](C)(O)C3=O` (stereo partly drawn) [Analog 142] as the molecule, how does the “Activity Value” [5] read?
**A.** The value was −5.

**Q.** What about the “MDR Activity” value [5] of the same molecule?
**A.** Its value is “Yes”.

**Q.** Which IC50 [1] does the source give for `CC(=O)O[C@@]1(C)C(=O)C2=CC(CO)=CC2=C(C)C12CC2` [Analog 090] here?
**A.** Its IC50 is 2.5 ± 0.4 µM.

**Q.** What about the IC50 [2] of the same molecule?
**A.** Its IC50 is 2.9 ± 0.4 µM.

**Q.** What about the IC50 [3, 11] of the same molecule?
**A.** The IC50 was 1.6 ± 0.2 µM.

**Q.** What about the IC50 [4] of the same molecule?
**A.** The IC50 was 3.8 ± 0.3 µM.
